Measurements published in patent EP4378525A1, “NON PEPTIDERGIC AGONISTS OF OXYTOCIN RECEPTOR” (Université de Strasbourg, priority 2022, dated 2024).
Like-named read-outs stand apart in the source and are kept apart here.

Experiments:
V1A-R = V1A-R (Homo sapiens, UniProt P37288); assay: V1A receptor antagonist assay measured as calcium signal; type: cell-based; settings: n=3; for Ratio V1A/OT: V1A-R IC50 / OT-R EC50; for IC50: antagonist, calcium signal, read-out: V1A-R (Antago) IC50
Source text: Comparison of efficacy as OT receptor agonist (measured as described in example 2), or as VIA receptor antagonist (measured as calcium signal, as follows), has been performed.

oxytocin receptor = molecular target: T1, oxytocin receptor (Homo sapiens, UniProt P30559); assay: IP-One IP1 accumulation assay in CHO cell lines expressing oxytocin receptor (agonist activation); type: cell-based; settings: n=3; for Emax: CHO, percentage of the endogenous agonist maximal stimulation, read-out: OT-R Emax
T1 construct: expressed in transfected cells; host or cells: CHO cell lines
T1 sequence (P30559 1-389): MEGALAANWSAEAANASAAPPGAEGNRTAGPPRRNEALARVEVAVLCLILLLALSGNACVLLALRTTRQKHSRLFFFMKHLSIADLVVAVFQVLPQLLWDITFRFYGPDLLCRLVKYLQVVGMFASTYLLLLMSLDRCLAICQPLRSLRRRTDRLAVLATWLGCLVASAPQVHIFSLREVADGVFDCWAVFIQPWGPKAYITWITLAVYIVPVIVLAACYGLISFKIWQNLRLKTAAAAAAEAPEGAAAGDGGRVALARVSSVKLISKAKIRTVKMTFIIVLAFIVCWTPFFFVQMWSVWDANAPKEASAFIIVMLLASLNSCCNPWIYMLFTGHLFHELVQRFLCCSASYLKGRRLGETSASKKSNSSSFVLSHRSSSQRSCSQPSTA
Protocol: The activation constants (EC50 in nM) were measured in CHO cell lines expressing oxytocin receptor by IP-One IP1 accumulation assay. These values are the mean ± SEM of at least three separate experiments performed in triplicate. […] When there is only a weak stimulation, results are expressed as percentages of the endogenous agonist maximal stimulation at [ligand] = 1 µM (n = 2). Results are not significant (ns) when there is <10% response at [ligand] = 1 µM (n = 2).

[1] = in vivo; cited from earlier work
[2] = CHO cell lines expressing oxytocin receptor, IP1 accumulation, read-out: OT-R EC50
[3] = selectivity table, measured as described in example 2, read-out: OT-R (Ago) EC50

V1A-R, sequence (P37288 whole entry, species assumed): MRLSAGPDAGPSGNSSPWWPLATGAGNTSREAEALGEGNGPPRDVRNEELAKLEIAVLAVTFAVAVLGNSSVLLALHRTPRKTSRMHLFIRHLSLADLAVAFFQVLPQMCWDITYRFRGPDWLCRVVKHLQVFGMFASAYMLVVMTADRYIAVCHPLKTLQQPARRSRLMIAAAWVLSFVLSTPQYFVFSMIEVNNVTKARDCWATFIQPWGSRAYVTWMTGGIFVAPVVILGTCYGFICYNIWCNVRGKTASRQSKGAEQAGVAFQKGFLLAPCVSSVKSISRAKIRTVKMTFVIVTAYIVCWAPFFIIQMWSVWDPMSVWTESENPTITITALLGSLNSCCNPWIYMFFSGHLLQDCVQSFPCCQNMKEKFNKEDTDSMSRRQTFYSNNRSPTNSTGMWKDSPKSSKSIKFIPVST

Compound	Ratio V1A/OT (V1A-R)	IC50 (V1A-R) [µM]	Emax (oxytocin receptor) [%]	EC50 (oxytocin receptor; [2]) [µM]	EC50 (oxytocin receptor; [3]) [µM]	half-life in blood [1]
Cc1cc(C(=O)N2Cc3cnn(C)c3Nc3ccccc32)ccc1CNC(=O)N1CCC[C@H]1C(=S)N(C)C [Reference, reference compound]	7.7	0.346	96.7	0.0451	0.0451	
Cc1cc(C(=O)N2Cc3cnn(C)c3Nc3ccccc32)ccc1CNC(=O)N1C[C@H](n2cc(CN)nn2)C[C@H]1C(=S)N(C)C [Compound 8]			120	0.033		
CCCc1cn([C@@H]2C[C@@H](C(=S)N(C)C)N(C(=O)NCc3ccc(C(=O)N4Cc5cnn(C)c5Nc5ccccc54)cc3C)C2)nn1 [Compound 19]				0.031		
oxytocin [OT]						about 3 minutes
Cc1cc(C(=O)N2Cc3cnn(C)c3Nc3ccccc32)ccc1CNC(=O)N1C[C@H](n2cc(COCCOCCO)nn2)C[C@H]1C(=S)N(C)C [Compound 14]				0.01		
Cc1cc(C(=O)N2Cc3cnn(C)c3Nc3ccccc32)ccc1CNC(=O)N1C[C@@H](n2cc(CO)nn2)C[C@H]1C(=S)N(C)C [Compound 6]	117	0.131	100	0.0007	0.00112	
Cc1cc(C(=O)N2Cc3cnn(C)c3Nc3ccccc32)ccc1CNC(=O)N1C[C@H](N=[N+]=[N-])C[C@H]1C(=S)N(C)C [Compound 2]			80	0.0391		
